Measurements published in PubChem BioAssay (NCI).
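Dose response: 5 concentrations. Exposure: 48 h. Format: 96-well plates. Endpoint: linear interpolation; highest concentration if not reached. At the TGI there is no net growth.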

How the values were obtained:
Assay in all cases: inhibition of tumour cell growth, NCI panel, 48 h
[1] = system: HCT-116 colon
[2] = system: NCI-H23 lung
[3] = system: T-47D breast
[4] = system: NCI-H226 lung
[5] = system: A498 renal
[6] = system: BT-549 breast
[7] = system: MALME-3M melanoma
[8] = system: M14 melanoma
[9] = system: A549 NSCLC
[10] = system: SNB-19 CNS
[11] = system: UACC-62 melanoma
[12] = system: MDA-MB-231 breast
[13] = system: SW-620 colon
[14] = system: HCT-15 colon
[15] = system: NCI-H460 lung
[16] = system: HS 578T breast
[17] = system: MCF7 breast
[18] = system: SNB-75 CNS
[19] = system: KM12 colon
[20] = system: SK-OV-3 ovarian
[21] = system: HOP-62 NSCLC
[22] = system: U251 CNS
[23] = system: CCRF-CEM leukemia
[24] = system: UO-31 renal
[25] = system: SF-268 CNS
[26] = system: MDA-MB-435
[27] = system: MDA-N
[28] = system: OVCAR-5 ovarian
[29] = system: 786-0 renal
[30] = system: RPMI-8226 leukemia
[31] = system: COLO 205 colon
[32] = system: DU-145 prostate
[33] = system: PC-3 prostate
[34] = system: ACHN renal
[35] = system: OVCAR-8 ovarian
[36] = system: CAKI-1 renal
[37] = system: SK-MEL-2 melanoma
[38] = system: NCI/ADR-RES ovarian
[39] = system: EKVX NSCLC
[40] = system: MOLT-4 leukemia
[41] = system: HT29 colon
[42] = system: SF-295 CNS
[43] = system: SF-539 CNS
[44] = system: OVCAR-4 ovarian
[45] = system: UACC-257 melanoma
[46] = system: SN12C renal
[47] = system: OVCAR-3 ovarian
[48] = system: HCC-2998 colon
[49] = system: SK-MEL-28 melanoma
[50] = system: RXF 393 renal
[51] = system: SR leukemia
[52] = system: K-562 leukemia
[53] = system: LOX IMVI melanoma
[54] = system: SK-MEL-5 melanoma
[55] = system: HL-60(TB) leukemia
[56] = system: TK-10 renal
[57] = system: IGROV1 ovarian

Measured: TGI

O=[N+]([O-])C(/C(Cl)=C(/Cl)N1CCOCC1)=C1\NCCO1
not listed: [50] | [51] | [52] | [53] | [54] | [55] | [56] | [57]
> 100 µM: all other assays above

CC(=O)NC1(C)CCC(C(C)(C)NC(C)=O)CC1 (centres undefined)
not listed: [3] | [37]
> 100 µM: all other assays above
